Counter-ions that a name gives are not always drawn.

RIPK1 (recombinant GST-RIPK1 kinase domain, residues 1-327), sequence (Q13546 1-327): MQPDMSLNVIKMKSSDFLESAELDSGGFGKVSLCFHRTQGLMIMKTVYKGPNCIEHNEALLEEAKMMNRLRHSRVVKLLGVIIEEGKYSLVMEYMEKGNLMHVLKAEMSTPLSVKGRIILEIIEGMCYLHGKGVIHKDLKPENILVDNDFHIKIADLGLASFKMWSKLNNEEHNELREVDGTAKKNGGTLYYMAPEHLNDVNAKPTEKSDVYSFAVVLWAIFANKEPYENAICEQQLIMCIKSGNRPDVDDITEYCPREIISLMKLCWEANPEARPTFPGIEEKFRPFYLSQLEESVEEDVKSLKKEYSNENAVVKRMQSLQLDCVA

For the experiment, the target named is RIPK1 (recombinant GST-RIPK1 kinase domain, residues 1-327) (Homo sapiens (Human), UniProt Q13546). Description: RIPK1-ADP-Glo Enzymatic Assay. As to conditions: ADP-Glo; 25 nM GST-RIPK1, 300 μM ATP; assay lower limit ~25 nM; read-out: RIPK1 V0 Ec50. The format is biochemical. In a few lines:
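Inhibition of ADP formation was measured after compound and enzyme (25 nM) were pre-incubated for 30 minutes at ambient temperature and the kinase reaction ran for 150 minutes at 300 μM ATP with dephosphorylated MBP substrate. EC50 values come from ten-point curves fitted non-linearly.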
(ADP-Glo first removes unused ATP, then detects ADP through luciferase.)
As usually defined, the EC50 is the concentration at which the effect is half-maximal. With `O=C1N2[C@@H](CC[C@H]2c2cc(F)cc(F)c2)OC12CCN(c1cc(-c3cnn(C(F)F)c3)ncn1)CC2` [Example 10.1, (5′S,7a′R)-1-(6-(1-(difluoromethyl)-1H-pyrazol-4-yl)pyrimidin-4-yl)-5′-(3,5-difluorophenyl) tetrahydro-3′H-spiro[piperidine-4,2′-pyrrolo[2,1-b]oxazol]-3′-one], the half-maximal effective concentration (EC50) was less than 25 nM. Next, `O=C1N2[C@@H](CC[C@H]2c2ccccc2F)OC12CN(Cc1ccccc1)C2` [Example 22.7, (5′S,7a′R)-1-benzyl-5′-(2-fluorophenyl)tetrahydro-3′H-spiro[azetidine-3,2′-pyrrolo[2,1-b][1,3]oxazol]-3′-one]: 103 nM.

As for `O=C(c1ccccc1F)N1CCC2(CC1)O[C@@H]1CC[C@@H](c3cccc(F)c3)N1C2=O` [Example 1.7, (5′S,7a′R)-1-(2-fluorobenzene-1-carbonyl)-5′-(3-fluorophenyl)tetrahydro-3′H-spiro[piperidine-4,2′-pyrrolo[2,1-b] [1,3]oxazol]-3′-one], the EC50 is less than 25 nM. With `N#Cc1ccc(N2CCC3(CC2)O[C@@H]2CC[C@@H](c4cccc(F)c4)N2C3=O)n2ncnc12` [Example 4.259, 5-[(5′S,7a′R)-5′-(3-fluorophenyl)-3′-oxotetrahydro-1H,3′H-spiro[piperidine-4,2′-pyrrolo[2,1-b] [1,3]oxazol]-1-yl][1,2,4]triazolo[1,5-a] pyridine-8-carbonitrile], the EC50 was less than 25 nM. For the compound `COc1cnc(N2CCC3(CC2)O[C@@H]2CC[C@@H](c4ccccc4)N2C3=O)n2ncnc12` [Example 19.6, (5′S,7a′R)-1-(8-methoxy[1,2,4]triazolo [1,5-c]pyrimidin-5-yl)-5′-phenyltetrahydro-3′H-spiro[piperidine-4,2′-pyrrolo[2,1-b][1,3]oxazol]-3′-one], the half-maximal effective concentration (EC50) was determined as 45.4 nM.

`N#Cc1ccc(N2CCC3(CC2)O[C@@H]2CC[C@@H](c4ccccc4F)N2C3=O)n2nccc12` [Example 4.156, 7-[(5′S,7a′R)-5′-(2-fluorophenyl)-3′-oxotetrahydro-1H,3′H-spiro[piperidine-4,2′-pyrrolo[2,1-b] [1,3]oxazol]-1-yl]pyrazolo[1,5-a] pyridine-4-carbonitrile]: the EC50 was less than 25 nM. To `CC1CN(C(=O)c2ccccc2)CCC12O[C@@H]1CC[C@@H](c3cc(F)cc(F)c3)N1C2=O` (single isomer, unassigned) [Example 2.6, (3[S or R],4[S or R], 5′S,7a′R)-1-benzoyl-5′-(3,5-difluorophenyl)-3-methyltetrahydro-3′H-spiro[piperidine-4,2′-pyrrolo[2,1-b]oxazol]-3′-one] belongs less than 25 nM.

Take `N#Cc1ccc(N2CCC3(CC2)O[C@@H]2CC[C@@H](c4cc(F)cc(F)c4)N2C3=O)cc1F` [Example 4.18, 4-[(5′S,7a′R)-5′-(3,5-difluorophenyl)-3′-oxotetrahydro-1H,3′H-spiro[piperidine-4,2′-pyrrolo[2,1-b] [1,3]oxazol]-1-yl]-2-fluorobenzonitrile]: the EC50 is less than 25 nM.

For the compound `O=C(c1ncccc1Cl)N1CCC2(CC1)O[C@@H]1CC[C@@H](c3cc(F)cc(F)c3)N1C2=O` [Example 6.53, (5′S,7a′R)-1-(3-chloropyridine-2-carbonyl)-5′-(3,5-difluorophenyl)tetra-hydro-3′H-spiro [piperidine-4,2′-pyrrolo[2,1-b][1,3]-oxazol]-3′-one], the EC50 amounted to 147 nM. Next, `O=C1N2[C@@H](CC[C@H]2c2ccccc2F)OC12CCN(c1cccc3ncnn13)CC2` [Example 4.253, (5′S,7a′R)-5′-(2-fluorophenyl)-1-([1,2,4]triazolo[1,5-a]pyridin-5-yl)tetrahydro-3′H-spiro[piperidine-4,2′-pyrrolo[2,1-b] [1,3]oxazol]-3′-one]: less than 25 nM. To `O=C1N2C(CCC2c2cccc(F)c2F)OC12CCN(c1ccnc3ccnn13)CC2` (stereo not drawn) [Example 20.7, 5′-(2,3-difluorophenyl)-1-(pyrazolo[1,5-a]pyrimidin-7-yl)tetrahydro-3′H-spiro[piperidine-4,2′-pyrrolo[2,1-b][1,3]oxazol]-3′-one] belongs less than 25 nM; to `O=C1N2[C@@H](CC[C@H]2c2ccccc2)OC12CCN(c1ccc(-c3ncco3)cn1)CC2` [Example 21.16, (5′S,7a′R)-1-[5-(1,3-oxazol-2-yl)pyridin-2-yl]-5′-phenyltetrahydro-3′H-spiro[piperidine-4,2′-pyrrolo[2,1-b][1,3]oxazol]-3′-one], less than 25 nM. To `NC(=O)c1ccc(N2CCC3(CC2)O[C@@H]2CC[C@@H](c4ccccc4)N2C3=O)nc1` [Example 4.199, 6-[(5′S,7a′R)-3′-oxo-5′-phenyltetrahydro-1H,3′H-spiro[piperidine-4,2′-pyrrolo[2,1-b] [1,3]oxazol]-1-yl]pyridine-3-carboxamide] belongs 36.2 nM. `O=C(c1ccccc1)N1CCC2(CC1)O[C@@H]1CC[C@@H](c3cnsc3)N1C2=O` [Example 17.7, (5′S,7a′R)-1-benzoyl-5′-(isothiazol-4-yl)tetrahydro-3′H-spiro[piperidine-4,2′-pyrrolo[2,1-b]oxazol]-3′-one]: the EC50 was found to be 558 nM.

For the compound `O=C1N2[C@@H](CC[C@H]2c2ccccc2)OC12CN(c1ccnc3ccnn13)C2` [Example 4.136, (5′S,7a′R)-5′-phenyl-1-(pyrazolo[1,5-a]pyrimidin-7-yl)tetrahydro-3′H-spiro[azetidine-3,2′-pyrrolo[2,1-b] [1,3]oxazol]-3′-one], the EC50 was less than 25 nM. Next, `Cc1nc(N2CCC3(CC2)O[C@@H]2CC[C@@H](c4ccccc4)N2C3=O)sc1C` [Example 11.32, (5′S,7a′R)-1-(4,5-dimethyl-1,3-thiazol-2-yl)-5′-phenyltetrahydro-3′H-spiro[piperidine-4,2′-pyrrolo[2,1-b][1,3]oxazol]-3′-one]: 319 nM; `Cc1ccccc1[C@@H]1CC[C@H]2OC3(CCN(C(=O)c4ccccc4)CC3)C(=O)N21` [Example 6.135, (5′S,7a′R)-1-(benzene-carbonyl)-5′-(2-meth-ylphenyl)tetrahydro-3′H-spiro[piperidine-4,2′-pyrrolo[2,1-b] [1,3]oxazol]-3′-one]: 457 nM; `CC(C)Oc1cc(N2CCC3(CC2)O[C@@H]2CC[C@@H](c4cc(F)cc(F)c4)N2C3=O)ncc1C#N` [Example 4.41, 6-[(5′S,7a′R)-5′-(3,5-difluorophenyl)-3′-oxotetrahydro-1H,3′H-spiro[piperidine-4,2′-pyrrolo[2,1-b] [1,3]oxazol]-1-yl]-4-[(propan-2-yl)oxy]pyridine-3-carbonitrile]: less than 25 nM.

Regarding `O=C1N2[C@@H](CC[C@H]2c2cc(F)cc(F)c2)OC12CCN(c1ccnc3ccnn13)CC2` [Example 4.6, (5′S,7a′R)-5′-(3,5-difluorophenyl)-1-(pyrazolo[1,5-a]pyrimidin-7-yl)tetrahydro-3′H-spiro[piperidine-4,2′-pyrrolo[2,1-b] [1,3]oxazol]-3′-one], the EC50 was less than 25 nM. Next, `N#Cc1cnc(N2CCC3(CC2)O[C@@H]2CC[C@@H](c4cc(F)cc(F)c4)N2C3=O)s1` [Example 4.101, 2-((5′S,7a′R)-5′-(3,5-difluorophenyl)-3′-oxotetrahydro-3′H-spiro[piperidine-4,2′-pyrrolo[2,1-b]oxazol]-1-yl)thiazole-5-carbonitrile]: 40.4 nM. Next, `O=C(Nc1ccccc1)N1CCC2(CC1)O[C@@H]1CC[C@@H](c3cc(F)cc(F)c3)N1C2=O` [Example 12.1, (5′S,7a′R)-5′-(3,5-Difluorophenyl)-3′-oxo-N-phenyltetrahydro-3′H-spiro[piperidine-4,2′-pyrrolo[2,1-b]oxazole]-1-carboxamide]: 537 nM; `O=C1N2[C@@H](CC[C@H]2c2ccccc2F)OC12CCN(c1ccnc(Cl)c1)CC2` [Example 4.268, (5′S,7a′R)-1-(2-chloropyridin-4-yl)-5′-(2-fluorophenyl)tetrahydro-3′H-spiro[piperidine-4,2′-pyrrolo[2,1-b] [1,3]oxazol]-3′-one]: less than 25 nM; `O=C(c1ccsc1-n1nccn1)N1CCC2(CC1)O[C@@H]1CC[C@@H](c3cc(F)cc(F)c3)N1C2=O` [Example 6.68, (5′S,7a′R)-5′-(3,5-difluorophenyl)-1-[2-(2H-1,2,3-triazol-2-yl)thiophene-3-carbonyl]tetrahydro-3′H-spiro[piperidine-4,2′-pyrrolo[2,1-b] [1,3]oxazol]-3′-one]: 212 nM. Next, `N#Cc1cccc([C@@H]2CC[C@H]3OC4(CCN(c5ccnc6c(F)cnn56)CC4)C(=O)N32)c1F` [Example 20.5, 2-fluoro-3-[(5′S,7a′R)-1-(3-fluoropyrazolo[1,5-a]pyrimidin-7-yl)-3′-oxotetrahydro-3′H-spiro[piperidine-4,2′-pyrrolo[2,1-b][1,3]oxazol]-5′-yl]benzonitrile]: less than 25 nM. Regarding `CC1CN(c2cccc3ncnn23)CCC12O[C@@H]1CC[C@@H](c3ccccc3)N1C2=O` (stereo partly drawn) [Example 4.245, (4R,5′S,7a′R)-3-methyl-5′-phenyl-1-([1,2,4]triazolo[1,5-a]pyridin-5-yl)tetrahydro-3′H-spiro[piperidine-4,2′-pyrrolo[2,1-b] [1,3]oxazol]-3′-one], the EC50 was less than 25 nM.

On to `Cc1ncc(C(=O)N2CCC3(CC2)O[C@@H]2CC[C@@H](c4cc(F)cc(F)c4)N2C3=O)cn1` [Example 6.77, (5′S,7a′R)-5′-(3,5-difluorophenyl)-1-(2-methylpyrimidine-5-carbonyl)tetrahydro-3′H-spiro[piperidine-4,2′-pyrrolo[2,1-b] [1,3]oxazol]-3′-one], for which the EC50 came to 572 nM.

Consider `O=C1N2[C@@H](CC[C@H]2c2ccccc2)OC12CCN(c1ccnc3c(F)cnn13)CC2F` (single isomer, unassigned) [Example 4.92, (3[S or R],4[R or S], 5′S,7a′R)-3-fluoro-1-(3-fluoropyrazolo[1,5-a]pyrimidin-7-yl)-5′-phenyltetrahydro-3′H-spiro[piperidine-4,2′-pyrrolo[2,1-b]oxazol]-3′-one, TFA salt], for which the EC50 was less than 25 nM.

For the origin of these results see patent publication US12180226B2, “Spirotricycle RIPK1 inhibitors and methods of uses thereof” (Merck Sharp & Dohme LLC, priority 2021, dated 2024).
